Patent publication US20250122189A1, “FGFR4 INHIBITOR ACID SALT, PREPARATION METHOD THEREFOR AND USE THEREOF” (Abbisko Therapeutics Co., Ltd., priority 2021, published 2025)
Structures can show the parent of a compound that is named as a salt.

Columns and labels:
[1] = Stability test under high temperature and accelerated conditions (chemical purity); type: physicochemical
Excerpt: The p-toluenesulfonate salt of the compound of formula (I) (Form A) and the compound of formula (I) in free form were subjected to conditions of high temperature and accelerated experiments for stability test, and the chemical purity was used as an evaluation index to evaluate the stability of the p-toluenesulfonate salt of the compound of formula (I) (Form A) and the compound of formula (I) in free form.

Solubility in water = type: physicochemical; settings: stirred 24 hrs at room temperature
Experimental: 2 mg of the p-toluenesulfonate salt of the compound of formula (I) (Form A) and 2 mg of the compound of formula (I) in free form were separately placed in a 2 mL glass bottle, 0.4 mL of water was added into the glass bottles separately, the two mixtures were each stirred for 24 hrs on a magnetic stirrer at room temperature and then centrifuged, and the content measurement was carried out by using a liquid phase.

[2] = In vivo pharmacokinetic experiment in monkeys; settings: Monkey, 200 mpk (based on the compound in free form); 200 mg/kg
Excerpt: The p-toluenesulfonate salt of the compound of formula (I) (Form A) and the compound of formula (I) in free form were each subjected to PK experiments in monkeys, and the administration dose was 200 mpk (based on the compound in free form).

[3] = Hygroscopic behavior test (dynamic vapor sorption); type: physicochemical; settings: DVS, 25° C., relative humidity 0% to 90%
Excerpt: The experimental method of characterizing the crystalline acidic salts of the compound of formula (I) using dynamic vapor sorption (DVS) is as follows: a small amount of crystalline acidic salt powder of the compound of formula (I) was placed in a precision sample pan that came with the instrument; after the sample was loaded, the aluminum pan was sent into the instrument for analysis. In the present patent, the instruments used for dynamic vapor sorption were all the DVS Intrinsic model, and the experimental parameters were set as follows: nitrogen was set as carrier gas, the constant temperature was set to 25° C., the rate of mass percentage change over a unit of time (dm/dt)=0.01%/min was used as a criterion for determining if an equilibrium is reached, and the program humidity change cycle was set as follows: the initial relative humidity was 0%, the relative humidity was 90% at the end of the cycle, 2 cycles were set, and each 10% R.H. change was a step.
The hygroscopic weight gains of the p-toluenesulfonate salt of the compound of formula (I) (Form A) in various relative humidity conditions (hygroscopic weight gain/pre-hygroscopic weight*100%) were measured according to the dynamic vapor sorption method to assess the hygroscopicity of the p-toluenesulfonate salt of the compound of formula (I) (Form A).

[4] = Solubility in physiological vehicle (25% PEG300/5% Solutol HS15/70% water); type: physicochemical; settings: vehicle 25% PEG300/5% Solutol HS15/70% water (v/v/v), room temperature, various time points (FIG. 7)
Experimental: 80 mg of the p-toluenesulfonate salt of the compound of formula (I) (Form A) and 80 mg of the compound of formula (I) in free form were separately placed in a 4 mL glass bottle, 2 mL of vehicle (25% PEG300/5% Solutol HS15/70% water) (v/v/v) was added into the glass bottles separately, the two mixtures were each stirred on a magnetic stirrer at room temperature, samples were taken at various time points and centrifuged, and the content measurement was carried out by using a liquid phase.

Structure (SMILES) | Chemical stability (% initial) ([1]; 40° C./75% RH, 3 d) | Chemical stability (% initial) ([1]; 40° C./75% RH, 7 d) | Chemical stability (% initial) ([1]; 40° C./75% RH, 14 d) | Chemical stability (% initial) ([1]; 60° C., 3 d) | Chemical stability (% initial) ([1]; 60° C., 7 d) | Chemical stability (% initial) ([1]; 60° C., 14 d) | Solubility (Solubility in water) [µg/mL] | AUC [2] [ng·h/mL] | weight change along with the increase of relative humidity (hygroscopic weight gain) [3] | solubility compared with the compound of formula (I) in free form [4]
C=CC(=O)N[C@H]1CCOC[C@H]1Nc1ncc2cc(-c3c(F)c(OC)cc(OC)c3F)nc(N3CC(C)(OC)C3)c2n1 [Compound of formula (I) in free form, N-((3S,4S)-3-((6-(2,6-difluoro-3,5-dimethoxyphenyl)-8-(3-methoxy-3-methylazetidin-1-yl)pyrido[3,4-d]pyrimidin-2-yl)amino)tetrahydro-2H-pyran-4-yl)acrylamide] | 99.9 | 100.0 | 100.0 | 100.1 | 100.1 | 100.1 | 25.6 | 9952 | – | –
C=CC(=O)N[C@H]1CCOC[C@H]1Nc1ncc2cc(-c3c(F)c(OC)cc(OC)c3F)nc(N3CC(C)(OC)C3)c2n1 [p-toluenesulfonate salt of the compound of formula (I) (Form] | 100.2 | 100.1 | 100.0 | 100.3 | 99.8 | 99.8 | 1370 | 124860 | no more than 2% | significantly higher
